Holding throughout (format): in vivo, mouse
One test relates to vGAT. Briefly: vGAT synaptic puncta immunohistochemistry. The following applies: 5×FAD mice, visual cortex. How it is done:
(§1) Loss of synapses and neurons are closely associated with higher neuroinflammatory response and cognitive decline in AD. Therefore, synaptic markers in the visual cortex of Plx3397 and/or GENUS treated mice were evaluated. […] Thus, whether these treatments had any effect on neuronal density by immunohistochemical analysis of neuronal marker NeuN was examined (Synaptic Systems, #266 004) positive cells (FIG. 4A).
vGAT and vGLUT1 puncta: LSM 710, with a 40× objective, was used to acquire the images. The entire […] thickness of the slices was acquired in Z stacks—80 per image (step of 0.5 μm). The spot-count inbuilt function in Imarisx64 9.3 was used to count cells automatically.
vGAT and vGLUT1 puncta: LSM 710, with a 40× objective, was used to acquire the images. The entire […] thickness of the slices was acquired in Z stacks—80 per image (step of 0.5 μm). The spot-count inbuilt function in Imarisx64 9.3 (cohortl) and 9.7 (cohort 2) was used to count cells automatically.

Another test deals with synaptophysin. Nature of the test: Synaptophysin western blot and immunohistochemistry. Particulars: 5×FAD mice. How it is done:
as §1
The visual cortex was dissected out and snap-frozen in liquid nitrogen and stored in an −80° C. freezer until processing. Samples were homogenized using a glass homogenizer with RIPA (50 mM Tris HCl pH 8.0, 150 mM NaCl, 1% NP-40, 0.5% sodium deoxycholate, 0.1% SDS) buffer which contains protease and phosphatase inhibitor. The concentration of proteins in samples were quantified using a Bio-Rad protein assay. Equal concentrations of proteins were prepared and added with SDS—sample buffer. […] of protein was loaded onto 4-20% polyacrylamide gels and electrophoresed. Protein was transferred from acrylamide gels to nitrocellulose membranes for 12 min (Semi-dry system, Bio-Rad). Membranes were blocked using BSA (5% w/v) diluted in TBS containing 0.1% Tween-20 (TBSTw), then incubated in primary antibodies overnight at 4° C. The following day, they were washed three times with TBSTw and incubated with horseradish peroxidase-linked secondary antibodies (GE Healthcare) at room temperature for 60 min. After three further washes with TBSTw, membranes were treated with chemiluminescence substrates and the blots were visualized (Chem doc, Bio-Rad). Signal intensities were quantified using ImageJ 1.46q and normalized to values of loading control.
These observations led to examination of the effect of Plx3397 administration on neuronal integrity. […]
The brain was perfused with PBS and fixed with 4% PFA. […] Signal intensities were quantified using ImageJ 1.46q and normalized to values of loading control.

The next test deals with D54D2 positive amyloid. Nature of the test: D54D2 amyloid immunohistochemistry in 5×FAD mice. The text has this: It was next sought to understand whether Plx3397 administration-dependent electrophysiological alterations were attributed to changes in amyloid plaque levels. […] In the cuprizone model of demyelination, Plx33977 administration preserved myelin. It was thus considered whether electrophysiological alterations are associated with myelin levels in Plx3397 treated 5×FAD mice.

The test system of another test is 5×FAD mice. Nature of the test: Novel object recognition test in 5×FAD mice. Particulars: chance level 50%, control 51.33±4.15. Here is the method:
Given the neuroprotective effect of Plx3397+GENUS treatment, whether this treatment also impacted learning and memory was evaluated. Mice were tested in an open field (OF) and assessed for changes in anxiety and activity levels, followed by a novel object recognition (NOR) test of memory. 10-month-1d 5×FAD mice were treated with Plx3397. Following 20 days administration of Plx3397 chow, untreated- and Plx3397 treated 5×FAD mice (which continued PLX administration) were subjected to 30 days of daily GENUS. Mice were tested in OF and NOR during the last week of these treatments. […] Next, CK-p25 mice were treated for 42 days and assessed behavioral performance.
For OF, mice were introduced into an open field box (dimensions: length=460 mm, width=460 mm and height=400 mm; TSE-Systems) and were tracked using Noldus (Ethovision) for 12 min, with time spent in the center and peripheral area of the arena measured. […] Mouse behavior was monitored for 7 min. Time spent exploring both the familiar and novel objects was recorded using Noldus and computed offline. Percentage of novelty preference index was calculated as follows: time exploring novel object (Nt) divided by total time exploring novel and familiar (Ft) objects and presented in %−{[Nt/Nt+Ft]*100}.

The mark [1] stands for this setting: hippocampus, chronic Plx3397 vs control.

Regarding `FC(F)(F)c1ccc(CNc2ccc(Cc3c[nH]c4ncc(Cl)cc34)cn2)cn1` [Plx3397, Pexidartinib], the vGAT synaptic puncta with vGAT (IHC) is recorded as 109.9±2.235 % of no treatment control. The “vGAT positive synaptic puncta” value with vGAT (vs untreated) is “significant increase”. Besides, the synaptophysin result in the test with synaptophysin (setting [1]) is “increased”. In the test on synaptophysin (visual cortex, IHC, Plx3397 50 days), the synaptophysin signals came to 6524128709±177336289 au. In addition, the “synaptophysin level (western blot)” value with synaptophysin (visual cortex, control 100±12.03) stood at 185.3±23.83. Moreover, in the test on D54D2 positive amyloid (setting [1]), the amyloid result is listed as “did not affect”. The “amyloid levels (D54D2 positive amyloid signal)” value with D54D2 positive amyloid (visual cortex, chronic Plx3397, not affected vs control) was 9894±1181 au. The “preference for the novel object in the NOR test (novelty index)” value with 5×FAD mice was found to be 57.55±7.00%.
